According to US20040110846A1, “Perylenequinones for use with immunotherapy agents” (priority 2004, published 2004):

Tested on: EMT6 murine mastocytoma
Experiment: Sonosensitizing potential: LD50 in EMT6 cells in vitro for a fixed dose of ultrasound
Type: cell-based
Conditions: not given
Description: (§1) As used herein, “photopotentiation factor” refers to the property of the compound(s) to exert light- or sound-mediated toxicity in excess of its (their) inherent unactivated toxicity. In a preferred embodiment of the invention, the activation factor may be calculated as the ratio of the LD50 of cells treated without activation to the LD50 of the cells treated with an activated compound (drug LD50 divided by activated drug LD50). Where the term “LD50” has been used above, the term “IC50” may be substituted, to address the bioassays that concern metabolic activity rather than the endpoint of lethality, loss of reproductive capability, or clonogenic death. The relative photoactivation efficiency of a compound may also be determined using a clonogenic assay, an assay that is well known to those skilled in the art.
(§2) for a fixed dose of light or ultrasound

Substance	Sonosensitizing Potential (Molar Concentration which exerts LD50)
Demethylated-HB [DMHBa]	1.0 mM
Methylamine-Hypocrellin B [HBMA-IV]	None
2-(N,N-dimethyl-amino) propylamine-Hypocrellin B [HBDD-R1]	1.0 mM
2-butylamino-2-demethoxy-Hypocrellin B [DMHBb]	0.1 mM
Ethylenediamne-Hypocrellin B [HBED-R2]	None
Hypocrellin A [HA, reference compound]	None
2-morpholino-ethylaminated HB [HBAM-R1]	None

Tested on: not listed separately
Experiment: Absorption (extinction coefficient) in the red spectral region compared with HB
Type: physicochemical
Conditions: 583 nm vs HB at 548 nm
Description: A hypocrellin derivative of the present invention also includes 2-butylamino-2-demethoxy-hypocrellin B (2-BA-2-DMHB). […] Compared with its parent compound HB, its absorption bands extend toward longer wavelengths. The extinction coefficient at 583 nm was 2.5-fold as much as HB at 548 nm, and at 621 nm was over 3.8-fold as much as HB at 580 nm.

Substance	extinction coefficient at 583 nm relative to HB at 548 nm [fold]
2-butylamino-2-demethoxy-Hypocrellin B [DMHBb]	2.5

Same assay, conditions: 621 nm vs HB at 580 nm

Substance	extinction coefficient at 621 nm relative to HB at 580 nm
2-butylamino-2-demethoxy-Hypocrellin B [DMHBb]	over 3.8 fold

Tested on: EMT6 murine
Experiment: Photosensitizing potential: LD50 in EMT6 cells in vitro for a fixed dose of light
Type: cell-based
Conditions: not given
Description: as §1, §2

Substance	Photosensitizing Potential (Molar Concentration which exerts LD50) [µM]
Demethylated-HB [DMHBa]	3.0
Methylamine-Hypocrellin B [HBMA-IV]	1.0
2-butylamino-2-demethoxy-Hypocrellin B [DMHBb]	0.1
Ethylenediamne-Hypocrellin B [HBED-R2]	4.0
Hypocrellin A [HA, reference compound]	4.0
2-morpholino-ethylaminated HB [HBAM-R1]	4.0
